The test system of data set [1] is tyrosine aminotransferase (TAT) in HepG2 cells. As to conditions: HepG2 human liver hepatocellular carcinoma cell line; cited from earlier work.
The conditions of data set [2]: patients, cited from earlier work; for Mean body weight increase over a period of ten weeks: Allison et al., Am J. Psychiatry 1999.
How the values of data set [3] were obtained: The dose level tested in our Phase 1b trial was 600 mg/day.
A 2-week, single-center, double-blind, randomized, placebo-controlled study was conducted in healthy male subjects age 18-55 years with BMI between 18-25 kg/m^2 and a stable body weight (defined as the Day 1 pre-dose body weight to be within ±2.0% of screening body weight). […] Food was freely available to all subjects during the study. The difference in mean change in absolute body weight after administration of OLZ+PBO compared to OLZ+MIRI was evaluated using a repeated measures model with imputation applied to missing values.
(HOMA2-IR values were calculated from fasted glucose and insulin levels using the HOMA (HOMA2 Model) Calculator® application programming interface for SAS (Oxford University 2013, available at the website www.dtu.ox.ac.uk/homacalculator)).

For data set [4] the following is noted: patients; doubled from 1.3±0.5 at baseline; Ebenbichler et al. 2003; cited from earlier work.
For data set [5] the following is noted: olanzapine prescribing information; cited from earlier work.
Where [6] appears, read: healthy male subjects, listed as miricorilant = MIRI 600 mg/day + OLZ 10 mg/day, listed as olanzapine = placebo + OLZ 10 mg/day.
Setting [7] is: healthy male subjects, listed as miricorilant = MIRI 600 mg/day + OLZ, listed as olanzapine = placebo + OLZ 10 mg/day, unit given in Table 1, not in Table 2.
[8] abbreviates: healthy male subjects, listed as miricorilant = olanzapine+miricorilant, listed as olanzapine = olanzapine+placebo.
[9] abbreviates: healthy male subjects, listed as miricorilant = olanzapine+miricorilant, listed as olanzapine = olanzapine+placebo, from Table 2 with Table 1 baselines.

Values joined by “and” are separate entries in the source; they are usually repeats but may differ in a detail not shown here. Equal entries are not always repeated.

With `CC#C[C@]1(O)CC[C@H]2[C@@H]3CCC4=CC(=O)CCC4=C3[C@@H](c3ccc(N(C)C)cc3)C[C@@]21C` [mifepristone], the “Effect on activity of tyrosine aminotransferase (TAT) in HepG2 cells” value in data set [1] is given as “decreases”.
Turning to `OCCOCCN1CCN(C2=Nc3ccccc3Sc3ccccc32)CC1` [quetiapine], the “Weight gained after treatment for a "short time"” value in data set [2] (Allison et al. 2001) is “about 3 kg”.
Consider `Cc1nc2n(c(=O)c1CCN1CCC(c3noc4cc(F)ccc34)CC1)CCCC2` [risperidone], for which, in data set [2] (Allison et al. 2001), the “Weight gained over 8-12 weeks” value is 2 to 3 kg.
In the case of `O=C1NCCN1CCN1CCC(c2cn(-c3ccc(F)cc3)c3ccc(Cl)cc23)CC1` [sertindole], the “Mean body weight increase over a period of ten weeks” value in data set [2] is listed as 2.92 kg.
`CN1CCN(C2=Nc3cc(Cl)ccc3Nc3ccccc32)CC1` [clozapine]: in data set [2], the “Mean body weight increase over a period of ten weeks” value is on record as 4.45 kg.
For `Cc1cc2c(s1)Nc1ccccc1N=C2N1CCN(C)CC1` [olanzapine, reference compound], in data set [3] (setting [6]), the “Body weight increase from baseline on Day 8” value was 3.5 kg and 3.49 kg; the “Body weight increase from baseline on Day 15” value was 5.0 kg and 4.99 kg; the “HOMA2-IR increase from baseline on Day 8” value was determined as 1.15; the “Insulin increase from baseline on Day 8” value is reported as 9.14 mIU/L. The “Insulin increase from baseline on Day 15” value in data set [3] (setting [6]) was found to be 9.65 mIU/L. Moreover, in data set [3] (setting [7]), the “Triglycerides increase from baseline on Day 8” value is 1.09 mmol/L and the “Triglycerides increase from baseline on Day 15” value worked out at 0.62 mmol/L. In data set [3] (setting [8]), the “Insulin increase from baseline, percent, day 15” value was determined as 127%; the “Triglycerides increase from baseline, percent, day 8” value is 115%; the “Triglycerides increase from baseline, percent, day 15” value is reported as 65%. In data set [3] (setting [9]), the “Body weight increase from baseline, percent of baseline, day 8” value is recorded as 4.9% and the “Body weight increase from baseline, percent of baseline, day 15” value is 6.9%. Besides, the “Number of participants who discontinued the study due to elevated liver enzymes” value in data set [3] (male, human, in vivo, 14 days) is 5. For the same compound, the “HOMA-IR after 8 weeks of olanzapine treatment” value in data set [4] was 2.6±1.4 mmol/mU·L. The “Weight gained after about 40 weeks of administration” value in data set [2] (Allison et al. 2001) was 7 to 8 kg. Moreover, in data set [5], the “Adult patients with triglyceride increases of ≥50 mg/dL at 12 weeks” value was approximately 40% and the “Adult patients with triglyceride increases of ≥50 mg/dL at 48 weeks” value was “more than 60%”.

Values taken from patent US11903945B2, “Methods of treating antipsychotic-induced weight gain with miricorilant” (Corcept Therapeutics Incorporated, priority 2019, dated 2024).
